Source: patent publication US9434670B2, “Family of aryl, heteroaryl, O-aryl and O-heteroaryl carbasugars” (TFCHEM, priority 2011, dated 2016)
In brackets after ≈: the same amount, converted by molar mass. One block for each compound: values may come before it.

What was measured:
[1] = test system: 18 hrs fasted female CD1 mice; experiment: Decrease of blood glucose excursions following oral glucose challenge (oral glucose tolerance test); type: in vivo
Method: As experimental animal, 18 hrs fasted female CD1 mice (CDM or Charles River) were used. A test compound was dissolved in the vehicle (5% N-methyl pyrrolidone, 20% PEG 400, 75% 20 mM Na4P2O7 buffer, v/v/v) at the concentration of 1 mg/mL. After the body weights of the mice were measured and the mice randomized, the test article was orally administered at the dose of 1 mg/kg, 3 mg/kg and 10 mg/kg. For control, just the vehicle (5% N-methyl pyrrolidone, 20% PEG 400, 75% 20 mM Na4P2O7 buffer, v/v/v) was orally administered. 15 min after this oral administration, a 20% glucose solution in deionised water was orally administered to all mice. The oral administration was performed with gastric tube for mice and a 1 mL syringe. The minimum count in one group was 3 but could reach 5 for some groups. Collection of the blood was performed via the saphenous vein. Blood was collected at 5, 10, 30, 45, 60 and 120 min post glucose challenge. One experiment consisted in administrating the test article 18 hrs prior to a glucose challenge i.e. 18 hrs post po of test article. The blood glucose concentration was measured using Johnson and Johnson's OneTouch® Ultra Blood Glucose Monitoring System. The glucose concentrations for controls and test articles at the different time points were averaged using Excel 2007 and plotted using GraphPad Prism 5.

female CD1 mice = experiment: Facilitatory effect on urinary glucose excretion after oral administration; type: in vivo; details: 3 mg/kg po
Method: As experimental animal, female CD1 mice (CDM or Charles River) were used. A test compound was dissolved in the vehicle (5% N-methyl pyrrolidone, 20% PEG 400, 75% 20 mM Na4P2O7 buffer, v/v/v) at the concentration of 1 mg/mL After the body weights of the mice were measured and the mice randomized, the test article was orally administered at the dose of 1 mg/kg, 3 mg/kg and 10 mg/kg. For control, just the vehicle (5% N-methyl pyrrolidone, 20% PEG 400, 75% 20 mM Na4P2O7 buffer, v/v/v) was orally administered. The oral administration was performed with gastric tube for mice and a 1 mL syringe. The minimum count in one group was 3 but could reach 12 for some groups. Collection of the urine was performed manually by gentling massaging the abdomen in order to collect urine (3 μL) via a calibrated pipette. Urine was collected at 1, 2, 4, 6, 8 and then 16, 18, 20, 22, 24, 26 and 28 hrs. The urine glucose concentration was measured using a WAKO glucose kit as follows: 3 μL of urine was deposited into a 96-well micro plate for spectrometric readout. The urine aliquot was diluted with 350 μL of the WAKO working solution. […] The absorbance of the 96-well plates were then read at 505 nm using a BioTek SynergyMX plate fluorometer/absorbance photometer and the glucose concentration was calculated. […]

[2] = test system: β-glucosidase from Almonds; experiment: Enzymatic stability against glycosidase, HPLC analysis after incubation with β-glucosidase; type: in vitro ADME; details: for degradation in the presence of β-glucosidase (in words): 4 h at 37° C., phosphate buffer pH 7, 10 U β-glucosidase
Text: The enzymatic stability assay has been performed with compound 26 according to the invention and compound A used as a reference compound to control the efficacy of the β-glucosidase. The sergliflozin-A stability has also been evaluated in order to compare the improvement of metabolic stability obtained through the replacement of the intracyclic oxygen atom of the glucose moiety by a CF2 moiety.
All the compounds have been treated with β-glucosidase. The stability of compound 26 and Sergliflozin-A has been assessed by HPLC analysis after incubation with β-glucosidase.
A Gilson HPLC system was used, equipped with a manual injection system (V=20 μL), a Diode Array Detector (DAD172) set at a wavelength of 230 nm and a 150 mm×4.6 mm, 5 μm HICHROM Kromasil 100-5C18 reverse phase column. A linear HPLC binary gradient was used as follows: solvent A was water and solvent B was acetonitrile. Following the injection of 20 μL of a sample, solvent B was held at 20% for 3 min, increased from 20% to 90% in 17 min, held at 90% for 4 min; finally, solvent B was decreased back to 20% over 5.5 min and was held at 20% for 3.5 min.
The procedure has been adapted from J. Agric. Food Chem. 2005, 53, 4918-4924.
100 μL of a solution of compound 26 at 4.5·10^−4 mol·L^−1 in acetonitrile was added to a solution containing 800 μL of phosphate buffer (73173 Fluka, pH 7) in the presence of β-glucosidase from Almonds (10 U, 100 μL of a 5.6 mg·mL^−1 solution in phosphate buffer, (G4511sigma 18.7 U per mg)) and was kept 4 h at 37° C.
100 μL of a solution of sergliflozin-A at 4.5·10^−4 moL·L^−1 in acetonitrile has been treated in the presence of β-glucosidase following the same process.
In parallel, 100 μL of a solution of p-nitrophenyl-β-glucoside (compound A) at 4.5·10^−4 mol·L^−1 in phosphate buffer (73173 Fluka, pH 7) was added to a solution containing 700 μL of phosphate buffer and 100 μL of acetonitrile, with the presence of β-glucosidase from Almonds (10 U, 100 μL of a 5.6 mg·mL^−1 solution in phosphate buffer, (G4511 sigma 18.7 U per mg)) and was kept 4 h at 37° C. During the process in the presence of β-glucosidase, a yellow coloration was observed that underlines the decomposition of compound. A.
HPLC of compound 21 (FIG. 7), compound 26 (FIG. 8) and Sergliflozin-A (FIG. 10) have been performed to follow up in the experiments the formation of compound 21 (the aglycone part) implying a degradation of the starting material.
In order to evaluate the percentage of degradation, a calibration has been done on compound 21 giving the following results:
Data have been plotted (Area % versus concentration) and the linear regression obtained was characterized by the equation y=53629x and a R^2=0.994. […]

Mushroom Tyrosinase [3] = experiment: Tyrosinase inhibition, concentration series and IC50 (assay f); type: biochemical; details: for IC50: Concentration Tyrosinase 100 U/mL, from linear regression of % activity versus concentration; for Absorbance (477 nm): 1 h 30 at 37° C.; for % activity: witness solution = 100%
Method: The protocol performed is the same as in assay e. Solution A (1,000 U/mL mother solution of Tyrosinase) was prepared by dissolving all of 50 kU Mushroom Tyrosinase in 1 mL 100 mM pH6.5 bis Tris buffer and QS to 50 mL with milliQ water. Bis Tris buffer (100 mM pH6.5 bis Tris buffer) was prepared by dissolving 2.09 g of Bis Tris in milliQ water and QS to 100 mL. pH was adjusted at 6.5 using hydrochloric acid. Solution B (mother solution of Tyrosine) was prepared by dissolving 20 mg of Tyrosine in milliQ water and QS to 20 mL. Stock solution of compound 31 was prepared as follow: 10 mg of compound 31 was dissolved in Bis Tris buffer up to 1 ml. Stock solution of β-arbutin was prepared as follow: 20 mg of compound β-arbutin was dissolved in Bis Tris buffer up to 1 ml. The solutions were incubated for 1 h 30 at 37° C., then quickly cooled to 4° C. 100 μL of each solution were deposited on 96-well plate. The absorbance of the different solutions were measured at 477 nm (Molecular Devices: Spectra Max 340PC). The different solutions were prepared as described in the different tables below and their absorbances were reported. The absorbance of witness solution (without inhibitor) was set at 100% of enzymatic activity, allowing us to determine the percentage of enzymatic activity of the different solutions. Data have been plotted (% of activity versus concentration of inhibitors) and the linear regression of the curve was used to calculate the […] of both compounds.

Mushroom Tyrosinase [4] = experiment: Inhibition of Tyrosine-Tyrosinase reaction, absorbance at 477 nm (assay e); type: biochemical; details: test compound n = 5·10^−5 mol; Solution A 1 mL, Solution B 0.5 mL, buffer 0.5 mL; witness solution 0.4354
Method: Inhibition of tyrosinase, i.e. inhibition of the hydroxylation of Tyrosine into DOPA, was measured by visible spectrophotometry, and more specifically by measuring the absorbance at 477 nm, indicative of the amount of melanine produced in vitro from the Tyrosine substrate by Tyrosinase. In order to make sure that the measured absorbance is proportional to the enzymatic activity in the range of studied concentrations, five standard solutions were prepared as follows. Absorbance has been measured on a Perkin Elmer UV/Vis Spectrometer Lambda 12. Solution A (1,000 U/mL mother solution of Tyrosinase) was prepared by dissolving 40 mg of 1,250 U/mg Mushroom Tyrosinase in 1 mL 100 mM pH6.5 bis Tris buffer and QS to 50 mL with milliQ water. Bis Tris buffer (100 mM pH6.5 bis Tris buffer) was prepared by dissolving 2.09 g of Bis Tris in milliQ water and QS to 100 mL. Solution B (mother solution of Tyrosine) was prepared by dissolving 100 mg of Tyrosine in milliQ water and QS to 100 mL. The standard solutions were incubated for 2 h at 37° C., then quickly cooled to 4° C. […] The following test solutions were prepared and their absorbance was measured at 477 nm: […]

[5] = test system: β-glucosidase from Almonds; details: as referred in several publications; cited from earlier work
[6] = Inhibitor Concentration 0.17 mg/mL
[7] = Inhibitor Concentration 0.33 mg/mL
[8] = Inhibitor Concentration 0.50 mg/mL
[9] = Inhibitor Concentration 0.67 mg/mL
[10] = Inhibitor Concentration 0.83 mg/mL
[11] = Inhibitor Concentration 1.33 mg/mL
[12] = Inhibitor Concentration 2.00 mg/mL
[13] = Inhibitor Concentration 2.67 mg/mL
[14] = Inhibitor Concentration 3.33 mg/mL

Compound: CCOc1ccc(Cc2cc([C@H]3[C@H](O)[C@@H](O)[C@H](O)[C@@H](CO)C3(F)F)ccc2Cl)cc1 [Compound 16]
- blood glucose excursions following glucose challenge ([1]; 3 mg/kg po administered 18 hrs prior to glucose challenge (FIG. 4)): still reduced blood glucose excursions
- blood glucose levels following glucose challenge ([1]; 1, 3 and 10 mg/kg po, normal mice, glucose 15 min after dosing (FIG. 3)): reduced blood glucose levels in a dose-dependent manner
- duration of glucosuria (female CD1 mice; compared to Dapagliflozin (FIG. 5)): > 24 h

Compound: COc1ccc(Cc2ccccc2O[C@H]2[C@H](O)[C@@H](O)[C@H](O)[C@@H](CO)C2(F)F)cc1 [Compound 26]
- degradation in the presence of β-glucosidase (in words) [2]: no degradation occurs

- IC50 (Mushroom Tyrosinase [3]): 328 µg/mL (≈ 1070 µM)
- Absorbance (477 nm) (Mushroom Tyrosinase [3]; [6]): 0.5855
- % activity (Mushroom Tyrosinase [3]; [6]): 81.55%
- Absorbance (477 nm) (Mushroom Tyrosinase [3]; [7]): 0.3535
- % activity (Mushroom Tyrosinase [3]; [7]): 49.23%
- Absorbance (477 nm) (Mushroom Tyrosinase [3]; [8]): 0.255
- % activity (Mushroom Tyrosinase [3]; [8]): 35.52%
- Absorbance (477 nm) (Mushroom Tyrosinase [3]; [9]): 0.220
- % activity (Mushroom Tyrosinase [3]; [9]): 30.57%
- Absorbance (477 nm) (Mushroom Tyrosinase [3]; [10]): 0.200
- % activity (Mushroom Tyrosinase [3]; [10]): 27.86%
- Absorbance (477 nm) (Mushroom Tyrosinase [4]): 0.1292
Compound: OC[C@@H]1[C@@H](O)[C@H](O)[C@@H](O)[C@H](Oc2ccc(O)cc2)C1(F)F [Compound 31]

- Absorbance (477 nm) (Mushroom Tyrosinase [4]): 0.1528
Compound: Oc1ccc(O)cc1 [Hydroquinone]

Compound: COc1ccc(Cc2ccccc2O[C@@H]2O[C@H](CO)[C@@H](O)[C@H](O)[C@H]2O)cc1 [Sergliflozin-A]
- cleavage by β-glucosidase [5]: undergo cleavage
- degradation in the presence of β-glucosidase (in words) [2]: degradation occurs
- degradation ([2]; 4 h of incubation at 37° C. with β-glucosidase, pH 7, from HPLC area of aglycone 21): 80%

Compound: CCOc1ccc(Cc2cc([C@H]3[C@H](O)[C@@H](O)[C@H](O)[C@@H](CO)[C@@H]3O)ccc2Cl)cc1 [compound 9 of WO 2009/1076550]
- glucosuria detected in the same time period (up to 24 hrs) (female CD1 mice; 16 to 28 hours after administration (FIG. 6)): none could be detected

Compound: O=[N+]([O-])c1ccc(O[C@@H]2O[C@H](CO)[C@@H](O)[C@H](O)[C@H]2O)cc1 [compound A, p-nitrophenyl-β-glucoside]
- degradation in the presence of β-glucosidase (in words) [2]: decomposition

- IC50 (Mushroom Tyrosinase [3]): 1100 µg/mL (≈ 4040 µM)
- Absorbance (477 nm) (Mushroom Tyrosinase [3]; [9]): 0.5010
- % activity (Mushroom Tyrosinase [3]; [9]): 66.62%
- Absorbance (477 nm) (Mushroom Tyrosinase [3]; [11]): 0.3040
- % activity (Mushroom Tyrosinase [3]; [11]): 40.43%
- Absorbance (477 nm) (Mushroom Tyrosinase [3]; [12]): 0.2380
- % activity (Mushroom Tyrosinase [3]; [12]): 31.65%
- Absorbance (477 nm) (Mushroom Tyrosinase [3]; [13]): 0.2035
- % activity (Mushroom Tyrosinase [3]; [13]): 27.06%
- Absorbance (477 nm) (Mushroom Tyrosinase [3]; [14]): 0.1970
- % activity (Mushroom Tyrosinase [3]; [14]): 26.20%
Compound: OC[C@H]1O[C@@H](Oc2ccc(O)cc2)[C@H](O)[C@@H](O)[C@@H]1O [β-Arbutin]
